Values quoted from earlier work as cited in patent publication US8309543B2 (priority 2003, dated 2012).

Columns and labels:
NaV1.8 = NaV1.8 (Homo sapiens, UniProt Q9Y5Y9); conditions: read-out: TTX IC50
NaV1.3 = NaV1.3 (Homo sapiens, UniProt Q9NY46); conditions: read-out: TTX IC50
[1] = in vivo

Chain of NaV1.3 (Q9NY46 whole entry, looked up): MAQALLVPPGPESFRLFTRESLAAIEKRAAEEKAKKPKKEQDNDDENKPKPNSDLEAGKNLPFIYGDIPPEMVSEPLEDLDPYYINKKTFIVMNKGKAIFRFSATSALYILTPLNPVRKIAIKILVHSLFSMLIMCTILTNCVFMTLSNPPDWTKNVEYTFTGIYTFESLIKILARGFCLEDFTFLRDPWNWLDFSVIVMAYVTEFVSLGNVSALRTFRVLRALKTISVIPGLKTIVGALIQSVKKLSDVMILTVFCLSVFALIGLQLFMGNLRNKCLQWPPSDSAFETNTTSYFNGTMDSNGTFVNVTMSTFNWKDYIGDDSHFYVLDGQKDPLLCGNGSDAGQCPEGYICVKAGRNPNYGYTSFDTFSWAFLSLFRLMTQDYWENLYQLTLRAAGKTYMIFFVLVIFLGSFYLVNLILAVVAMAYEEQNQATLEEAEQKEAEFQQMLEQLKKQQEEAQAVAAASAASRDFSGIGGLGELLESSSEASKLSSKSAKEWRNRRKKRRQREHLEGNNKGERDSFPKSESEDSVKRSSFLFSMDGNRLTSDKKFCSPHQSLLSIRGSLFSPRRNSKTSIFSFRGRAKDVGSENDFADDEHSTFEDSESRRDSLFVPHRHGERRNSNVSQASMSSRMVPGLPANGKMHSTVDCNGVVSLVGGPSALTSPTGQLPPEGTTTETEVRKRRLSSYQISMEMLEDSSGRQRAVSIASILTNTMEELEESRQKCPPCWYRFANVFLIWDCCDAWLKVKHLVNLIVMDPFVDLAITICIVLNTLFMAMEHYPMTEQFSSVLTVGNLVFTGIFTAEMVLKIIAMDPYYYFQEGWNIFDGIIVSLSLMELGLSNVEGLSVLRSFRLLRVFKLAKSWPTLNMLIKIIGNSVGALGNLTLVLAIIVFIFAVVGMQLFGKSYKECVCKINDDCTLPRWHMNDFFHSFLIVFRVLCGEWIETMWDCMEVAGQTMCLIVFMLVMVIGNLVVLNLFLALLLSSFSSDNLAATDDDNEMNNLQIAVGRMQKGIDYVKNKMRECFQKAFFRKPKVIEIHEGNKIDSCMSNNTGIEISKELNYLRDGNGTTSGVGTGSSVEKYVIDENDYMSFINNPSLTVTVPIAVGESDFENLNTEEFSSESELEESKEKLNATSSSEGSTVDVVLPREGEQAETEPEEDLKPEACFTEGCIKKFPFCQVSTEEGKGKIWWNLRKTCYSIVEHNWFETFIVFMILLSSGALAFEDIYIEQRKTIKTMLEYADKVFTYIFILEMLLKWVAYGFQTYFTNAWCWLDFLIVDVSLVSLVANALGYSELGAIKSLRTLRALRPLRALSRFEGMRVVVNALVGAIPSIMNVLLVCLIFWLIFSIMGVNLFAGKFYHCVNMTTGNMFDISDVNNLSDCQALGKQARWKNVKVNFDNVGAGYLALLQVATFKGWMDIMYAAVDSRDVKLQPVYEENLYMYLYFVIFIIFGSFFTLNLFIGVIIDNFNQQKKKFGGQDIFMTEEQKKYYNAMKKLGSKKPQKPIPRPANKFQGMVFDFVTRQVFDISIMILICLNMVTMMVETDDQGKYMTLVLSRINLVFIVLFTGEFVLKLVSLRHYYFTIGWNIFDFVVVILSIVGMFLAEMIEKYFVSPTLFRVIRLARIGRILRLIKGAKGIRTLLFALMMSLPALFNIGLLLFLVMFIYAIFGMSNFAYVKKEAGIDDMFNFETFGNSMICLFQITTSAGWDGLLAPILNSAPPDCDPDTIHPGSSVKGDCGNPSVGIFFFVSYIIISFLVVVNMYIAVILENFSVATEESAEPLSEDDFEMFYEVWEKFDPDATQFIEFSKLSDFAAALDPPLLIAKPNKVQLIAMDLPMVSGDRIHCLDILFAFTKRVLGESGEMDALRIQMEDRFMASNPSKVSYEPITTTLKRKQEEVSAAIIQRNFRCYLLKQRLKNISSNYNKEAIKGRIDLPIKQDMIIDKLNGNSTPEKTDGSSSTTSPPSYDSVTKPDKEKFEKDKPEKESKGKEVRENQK
Chain of NaV1.8 (Q9Y5Y9 whole entry, looked up): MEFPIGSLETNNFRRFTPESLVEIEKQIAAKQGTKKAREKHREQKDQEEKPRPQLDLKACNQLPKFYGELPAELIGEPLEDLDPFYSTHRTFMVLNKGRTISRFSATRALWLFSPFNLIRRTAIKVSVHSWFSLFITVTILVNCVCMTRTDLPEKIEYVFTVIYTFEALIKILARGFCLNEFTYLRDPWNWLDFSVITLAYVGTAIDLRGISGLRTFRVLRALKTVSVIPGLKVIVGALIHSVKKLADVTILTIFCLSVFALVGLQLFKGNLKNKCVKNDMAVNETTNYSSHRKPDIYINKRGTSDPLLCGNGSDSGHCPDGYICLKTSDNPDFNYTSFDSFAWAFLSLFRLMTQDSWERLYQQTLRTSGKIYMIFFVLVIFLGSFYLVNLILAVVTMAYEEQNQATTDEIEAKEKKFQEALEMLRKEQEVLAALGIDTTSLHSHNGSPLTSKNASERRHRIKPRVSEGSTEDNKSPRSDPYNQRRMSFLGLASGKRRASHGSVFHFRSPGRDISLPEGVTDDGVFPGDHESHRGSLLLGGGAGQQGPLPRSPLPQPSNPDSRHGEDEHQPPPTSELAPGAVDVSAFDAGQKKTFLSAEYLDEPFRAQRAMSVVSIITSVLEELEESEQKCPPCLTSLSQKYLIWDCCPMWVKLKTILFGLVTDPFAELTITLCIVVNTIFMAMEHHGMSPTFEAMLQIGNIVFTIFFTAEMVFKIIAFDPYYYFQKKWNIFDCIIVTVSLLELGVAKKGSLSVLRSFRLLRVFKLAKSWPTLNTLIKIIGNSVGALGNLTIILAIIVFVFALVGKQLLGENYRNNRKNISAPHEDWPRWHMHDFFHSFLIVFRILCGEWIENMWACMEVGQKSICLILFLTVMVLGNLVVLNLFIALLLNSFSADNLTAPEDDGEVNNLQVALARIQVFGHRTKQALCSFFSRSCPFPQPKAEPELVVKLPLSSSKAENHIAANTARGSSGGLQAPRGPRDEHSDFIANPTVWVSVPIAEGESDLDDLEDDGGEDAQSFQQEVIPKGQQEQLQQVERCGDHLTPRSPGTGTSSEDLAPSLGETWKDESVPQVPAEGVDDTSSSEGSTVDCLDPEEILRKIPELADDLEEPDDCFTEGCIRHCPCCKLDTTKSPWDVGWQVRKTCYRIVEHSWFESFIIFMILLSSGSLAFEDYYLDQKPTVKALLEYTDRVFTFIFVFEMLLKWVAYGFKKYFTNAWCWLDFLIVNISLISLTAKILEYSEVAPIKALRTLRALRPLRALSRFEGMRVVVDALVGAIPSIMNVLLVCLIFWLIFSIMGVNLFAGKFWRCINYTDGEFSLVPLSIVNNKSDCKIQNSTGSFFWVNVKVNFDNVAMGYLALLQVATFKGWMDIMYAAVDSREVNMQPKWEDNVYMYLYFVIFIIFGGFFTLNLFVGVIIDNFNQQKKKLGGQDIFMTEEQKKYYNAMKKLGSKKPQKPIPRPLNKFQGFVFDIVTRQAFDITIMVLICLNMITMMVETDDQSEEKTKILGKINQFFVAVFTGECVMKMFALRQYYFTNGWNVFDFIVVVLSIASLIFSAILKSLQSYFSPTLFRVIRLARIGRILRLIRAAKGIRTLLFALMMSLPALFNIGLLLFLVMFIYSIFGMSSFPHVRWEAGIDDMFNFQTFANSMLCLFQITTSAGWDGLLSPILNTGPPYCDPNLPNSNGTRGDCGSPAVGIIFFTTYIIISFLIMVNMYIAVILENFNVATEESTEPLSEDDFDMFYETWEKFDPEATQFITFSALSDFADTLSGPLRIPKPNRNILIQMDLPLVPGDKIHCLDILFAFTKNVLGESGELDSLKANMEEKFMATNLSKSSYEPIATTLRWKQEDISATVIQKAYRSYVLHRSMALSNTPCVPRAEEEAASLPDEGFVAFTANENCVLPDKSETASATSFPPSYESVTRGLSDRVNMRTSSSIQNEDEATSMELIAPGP

SMILES	IC50 (NaV1.8)	IC50 (NaV1.3)	share of patients in which the drug works [1]
NC1=N[C@H](O)[C@H]2[C@H]3O[C@]4(O)O[C@@H]([C@@H](O)[C@@]2(N1)[C@@H]4O)[C@]3(O)CO [TTX, tetrodotoxin]	> 50000 nM	15 nM	–
NCC1(CC(=O)O)CCCCC1 [Gabapentin]	–	–	60%
